Assay results: ChEMBL document CHEMBL2413072, “Synthesis and in vitro anticancer studies of novel C-2 arylidene congeners of lantadenes” (2013)

How the values were obtained:
Assay type in all cases: functional
[1] = test system: RPMI-8226; assay: Growth inhibition of human RPMI8226 cells assessed as cell growth at 10^-8 M by sulforhodamine B assay; settings: read-out: Activity
[2] = test system: RPMI-8226; assay: Growth inhibition of human RPMI8226 cells assessed as cell growth at 10^-7 M by sulforhodamine B assay; settings: read-out: Activity
[3] = test system: HT-29; assay: Growth inhibition of human HT-29 cells assessed as cell growth at 10^-8 M by sulforhodamine B assay; settings: read-out: Activity
[4] = test system: IGROV-1; assay: Growth inhibition of human IGROV1 cells assessed as cell growth at 10^-7 M by sulforhodamine B assay; settings: read-out: Activity
[5] = test system: HOP-62; assay: Growth inhibition of human HOP62 cells assessed as cell growth at 10^-7 M by sulforhodamine B assay; settings: read-out: Activity
[6] = test system: NCI-H322M; assay: Growth inhibition of human NCI-H322M cells assessed as cell growth at 10^-4 M by sulforhodamine B assay; settings: read-out: Activity
[7] = test system: RXF 393; assay: Growth inhibition of human RXF393 cells by sulforhodamine B assay
[8] = test system: SK-MEL-5; assay: Growth inhibition of human SK-MEL-5 cells assessed as cell growth at 10^-7 M by sulforhodamine B assay; settings: read-out: Activity
[9] = test system: OVCAR-4; assay: Growth inhibition of human OVCAR4 cells assessed as cell growth at 10^-4 M by sulforhodamine B assay; settings: read-out: Activity
[10] = test system: OVCAR-3; assay: Growth inhibition of human OVCAR3 cells assessed as cell growth at 10^-7 M by sulforhodamine B assay; settings: read-out: Activity
[11] = test system: ACHN; assay: Growth inhibition of human ACHN cells assessed as cell growth at 10^-7 M by sulforhodamine B assay; settings: read-out: Activity
[12] = test system: CAKI-1; assay: Growth inhibition of human CAKI-1 cells assessed as cell growth at 10^-8 M by sulforhodamine B assay; settings: read-out: Activity
[13] = test system: NCI-H226; assay: Growth inhibition of human NCI-H226 cells assessed as cell growth at 10^-7 M by sulforhodamine B assay; settings: read-out: Activity
[14] = test system: SNB-75; assay: Growth inhibition of human SNB75 cells by sulforhodamine B assay
[15] = test system: UO-31; assay: Growth inhibition of human UO31 cells assessed as cell growth at 10^-7 M by sulforhodamine B assay; settings: read-out: Activity
[16] = test system: UACC-62; assay: Growth inhibition of human UACC62 cells assessed as cell growth at 10^-4 M by sulforhodamine B assay; settings: read-out: Activity
[17] = test system: U-251; assay: Growth inhibition of human U251 cells by sulforhodamine B assay
[18] = test system: SNB-19; assay: Growth inhibition of human SNB19 cells assessed as cell growth at 10^-7 M by sulforhodamine B assay; settings: read-out: Activity
[19] = test system: Malme-3M; assay: Growth inhibition of human MALME-3M cells assessed as cell growth at 10^-7 M by sulforhodamine B assay; settings: read-out: Activity
[20] = test system: IGROV-1; assay: Growth inhibition of human IGROV1 cells assessed as cell growth at 10^-6 M by sulforhodamine B assay; settings: read-out: Activity
[21] = test system: SK-MEL-28; assay: Growth inhibition of human SK-MEL-28 cells assessed as cell growth at 10^-7 M by sulforhodamine B assay; settings: read-out: Activity
[22] = test system: MDA-MB-435; assay: Growth inhibition of human MDA-MB-435 cells assessed as cell growth at 10^-6 M by sulforhodamine B assay; settings: read-out: Activity
[23] = test system: LOX IMVI; assay: Growth inhibition of human LOXIMVI cells assessed as cell growth at 10^-6 M by sulforhodamine B assay; settings: read-out: Activity
[24] = test system: HT-29; assay: Growth inhibition of human HT-29 cells assessed as cell growth at 10^-6 M by sulforhodamine B assay; settings: read-out: Activity
[25] = test system: PC-3; assay: Growth inhibition of human PC3 cells by sulforhodamine B assay
[26] = test system: NCI-H460; assay: Growth inhibition of human NCI-H460 cells by sulforhodamine B assay
[27] = test system: HL-60(TB); assay: Growth inhibition of human HL-60(TB) cells assessed as cell growth at 10^-6 M by sulforhodamine B assay; settings: read-out: Activity
[28] = test system: TK-10; assay: Growth inhibition of human TK10 cells assessed as cell growth at 10^-8 M by sulforhodamine B assay; settings: read-out: Activity
[29] = test system: SF-295; assay: Growth inhibition of human SF295 cells assessed as cell growth at 10^-8 M by sulforhodamine B assay; settings: read-out: Activity
[30] = test system: MDA-MB-231; assay: Growth inhibition of human MDA-MB-231 cells assessed as cell growth at 10^-7 M by sulforhodamine B assay; settings: read-out: Activity
[31] = test system: MDA-MB-231; assay: Growth inhibition of human MDA-MB-231 cells assessed as cell growth at 10^-6 M by sulforhodamine B assay; settings: read-out: Activity
[32] = test system: CCRF-CEM; assay: Growth inhibition of human CCRF-CEM cells assessed as cell growth at 10^-6 M by sulforhodamine B assay; settings: read-out: Activity
[33] = test system: KM12; assay: Growth inhibition of human KM12 cells by sulforhodamine B assay
[34] = test system: MOLT-4; assay: Growth inhibition of human MOLT4 cells assessed as cell growth at 10^-4 M by sulforhodamine B assay; settings: read-out: Activity
[35] = test system: SF-539; assay: Growth inhibition of human SF539 cells assessed as cell growth at 10^-8 M by sulforhodamine B assay; settings: read-out: Activity
[36] = test system: OVCAR-4; assay: Growth inhibition of human OVCAR4 cells assessed as cell growth at 10^-6 M by sulforhodamine B assay; settings: read-out: Activity
[37] = test system: HCT-116; assay: Growth inhibition of human HCT116 cells assessed as cell growth at 10^-8 M by sulforhodamine B assay; settings: read-out: Activity
[38] = test system: DU-145; assay: Growth inhibition of human DU145 cells assessed as cell growth at 10^-4 M by sulforhodamine B assay; settings: read-out: Activity
[39] = test system: K562; assay: Growth inhibition of human K562 cells assessed as cell growth at 10^-6 M by sulforhodamine B assay; settings: read-out: Activity
[40] = test system: HOP-62; assay: Growth inhibition of human HOP62 cells assessed as cell growth at 10^-8 M by sulforhodamine B assay; settings: read-out: Activity
[41] = test system: RPMI-8226; assay: Growth inhibition of human RPMI8226 cells assessed as cell growth at 10^-6 M by sulforhodamine B assay; settings: read-out: Activity
[42] = test system: OVCAR-5; assay: Growth inhibition of human OVCAR5 cells assessed as cell growth at 10^-7 M by sulforhodamine B assay; settings: read-out: Activity
[43] = read-out: LC50 (the source's name)
[44] = read-out: pLC50 (the source's name) (converted)

With CC(C)=CC(=O)O[C@@H]1CC(C)(C)C[C@H]2C3=CC[C@@H]4[C@@]5(C)CCC(=O)C(C)(C)[C@@H]5CC[C@@]4(C)[C@]3(C)CC[C@@]12C(=O)O the growth at 0.01 µM [1] was 101%, the growth at 0.1 µM [2] was 91% and the growth at 0.01 µM [3] was 101%. For the same compound, the growth at 0.1 µM [4] was 108%, the growth at 0.1 µM [5] was 97% and the growth at 100 µM [6] was -25%. The GI50 ([7]; read-out: GI50) was 3.31 µM, the CC50 [7, 43] was 63.5 µM and the TGI ([7]; read-out: TGI) was 16.3 µM. It also gave a GI50 ([7]; read-out: pGI50 (converted)) of 3.31 µM, a CC50 [7, 44] of 63.1 µM and a TGI ([7]; read-out: pTGI (converted)) of 16.2 µM. It also gave a growth at 0.1 µM [8] of 91%, a growth at 100 µM [9] of 10% and a growth at 0.1 µM [10] of 100%. For the same compound, the growth at 0.1 µM [11] was 92%, the growth at 0.01 µM [12] was 95% and the growth at 0.1 µM [13] was 87%. For the same compound, the GI50 ([14]; read-out: GI50) was 7.71 µM, the CC50 [14, 43] was > 100 µM and the TGI ([14]; read-out: TGI) was 39.2 µM. The GI50 ([14]; read-out: pGI50 (converted)) was 7.76 µM, the CC50 [14, 44] was > 100 µM and the TGI ([14]; read-out: pTGI (converted)) was 38.9 µM. For the same compound, the growth at 0.1 µM [15] was 91%, the growth at 100 µM [16] was -80% and the GI50 ([17]; read-out: GI50) was 2900 nM. The CC50 [17, 43] was > 100 µM, the TGI ([17]; read-out: TGI) was 20.7 µM and the GI50 ([17]; read-out: pGI50 (converted)) was 2880 nM. The CC50 [17, 44] was > 100 µM, the TGI ([17]; read-out: pTGI (converted)) was 20.9 µM and the growth at 0.1 µM [18] was 88%. It also gave a growth at 0.1 µM [19] of 90%, a growth at 1 µM [20] of 98% and a growth at 0.1 µM [21] of 99%. For the same compound, the growth at 1 µM [22] was 92%, the growth at 1 µM [23] was 87% and the growth at 1 µM [24] was 82%. For the same compound, the GI50 ([25]; read-out: GI50) was 1550 nM, the CC50 [25, 43] was > 100 µM and the TGI ([25]; read-out: TGI) was 89.1 µM. For the same compound, the GI50 ([25]; read-out: pGI50 (converted)) was 1550 nM, the CC50 [25, 44] was > 100 µM and the TGI ([25]; read-out: pTGI (converted)) was 89.1 µM. The GI50 ([26]; read-out: GI50) was 2210 nM, the LC50 ([26]; read-out: LC50) was 85.5 µM and the TGI ([26]; read-out: TGI) was 14.6 µM. The GI50 ([26]; read-out: pGI50 (converted)) was 2190 nM, the LC50 ([26]; read-out: pLC50 (converted)) was 85.1 µM and the TGI ([26]; read-out: pTGI (converted)) was 14.5 µM. It also gave a growth at 1 µM [27] of 94%, a growth at 0.01 µM [28] of 96% and a growth at 0.01 µM [29] of 86%. The growth at 0.1 µM [30] was 93%, the growth at 1 µM [31] was 76% and the growth at 1 µM [32] was 71%. The GI50 ([33]; read-out: GI50) was 879 nM, the LC50 (50% net cell kill) ([33]; read-out: LC50) was 59.3 µM and the TGI ([33]; read-out: TGI) was 15.3 µM. It also gave a GI50 ([33]; read-out: pGI50 (converted)) of 871 nM, an LC50 (50% net cell kill) ([33]; read-out: pLC50 (converted)) of 58.9 µM and a TGI ([33]; read-out: pTGI (converted)) of 15.5 µM. For the same compound, the growth at 100 µM [34] was -21%, the growth at 0.01 µM [35] was 93% and the growth at 1 µM [36] was 83%. It also gave a growth at 0.01 µM [37] of 98%, a growth at 100 µM [38] of -51% and a growth at 1 µM [39] of 75%. It also gave a growth at 0.01 µM [40] of 93%, a growth at 1 µM [41] of 58% and a growth at 0.1 µM [42] of 91%.
